Data from patent US11931464B2, “Minimizing agglomeration, aeration, and preserving the coating of pharmaceutical compositions comprising ibuprofen” (Catalent U.K. Swindon Zydis Limited, priority 2019, dated 2024).

How the values were obtained:
[1] = Aeration of suspension mixes, height of the foam in the mixing vessel; format: physicochemical; conditions: for Foam Height: 0% mix: 5 mm
Description: (§1) The effectiveness of chemical compounds comprising terpene and/or terpinol at minimizing aeration can be determined in part by measuring the particle size of the hydrophobic coated Ibuprofen in pharmaceutical suspension over time. If the chemical compound is effective, the aeration of the suspension will be adequately low and the particle size of the hydrophobic coated Ibuprofen will remain constant or decrease very little over time. If ineffective, the aeration of the suspension will be higher than desired and the particle size of the hydrophobic coated Ibuprofen can decrease more substantially over time. The extent of aeration of the suspension is assessed by measurement of height of the foam in the mixing vessel. The particle size of the functionally-coated particles can be measured using laser diffraction, a particle analyzer such as a Malvern Mastersizer, or any other suitable means for analyzing fine particles. Example 7: A series of suspension mixes were manufactured by mixing the coated Ibuprofen in the matrix solution/suspension containing various levels of limonene, orange flavor, and strawberry flavor. The height of the foam from these suspension is summarized in Table 7, 8, and 9 respectively.

[2] = Particle size of hydrophobic coated Ibuprofen in suspension with liquid flavor or limonene; format: physicochemical; conditions: 0.25% w/w versus 0.45% w/w and 0.75% w/w, 24 hours
Description: as §1, with “particles.” for “particles. Example 7: A series of suspension mixes were manufactured by mixing the coated Ibuprofen in the matrix solution/suspension containing various levels of limonene, orange flavor, and strawberry flavor. The height of the foam from these suspension is summarized in Table 7, 8, and 9 respectively.”
Example 8: FIGS. 10, 11, and 12 show the decrease in particle size (d10, d50, and d90, respectively) of hydrophobic coated Ibuprofen in a pharmaceutical suspension comprising various concentrations of liquid orange flavor. A particle size expressed in terms of its d10 means that 10 percent of the particles in a given volume of sample lie below a given particle size. […]

SMILES: C=C(C)[C@H]1CC=C(C)CC1 [limonene]
- Aeration of the suspension ([1]; 0.25% w/w): sufficiently low amount of aeration
- Foam Height ([1]; 0.30% w/w in mix with coated Ibuprofen): 1 mm
- Foam Height ([1]; 0.6% w/w in mix with coated Ibuprofen): 1 mm
- Foam Height ([1]; […] w/w in mix with coated Ibuprofen): 2 mm
- Effect on aeration ([1]; level […] w/w and above): minimize the aeration
- Effect on the coating (particle size d10, d50, d90) [2]: much less deleterious effect
